In ChEMBL document CHEMBL1201862, “PubChem BioAssay data set” (2004):
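Protocol summary: plate cells (96-well), add compound at 5 concentrations, incubate 48 h, interpolate endpoints linearly. At the GI50, growth is halved.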 Active and inactive are the calls of the source. No stated cut-off is given here; in the data, active = GI50 up to about 1.1 µM and inactive = higher.

How the values were obtained:
Assay in all cases: NCI tumour cell line growth inhibition, 48 h
COLO 205 = test system: COLO 205
SN12C = test system: SN12C
U-251 = test system: U-251
A549 = test system: A549
OVCAR-8 = test system: OVCAR-8
OVCAR-4 = test system: OVCAR-4
KM12 = test system: KM12
HCT-116 = test system: HCT-116
SR = test system: SR
CAKI-1 = test system: CAKI-1
MDA-N = test system: MDA-N
SNB-19 = test system: SNB-19
M14 = test system: M14
SW-620 = test system: SW-620
HCT-15 = test system: HCT-15
UACC-62 = test system: UACC-62
HT-29 = test system: HT-29
LOX IMVI = test system: LOX IMVI
UACC-257 = test system: UACC-257
MDA-MB-231 = test system: MDA-MB-231

## CCOC1NC(/N=C/c2ccc(OC)cc2)=C(C#N)C1C#N (stereo not given)
COLO 205
  GI50: 75.3 µM (inactive)
SN12C
  GI50: > 100 µM (inactive)
U-251
  GI50: > 100 µM (inactive)
A549
  GI50: > 100 µM (inactive)
OVCAR-8
  GI50: > 100 µM (inactive)
OVCAR-4
  GI50: 18.4 µM (inactive)
KM12
  GI50: 64.6 µM (inactive)
HCT-116
  GI50: 63.1 µM (inactive)
SR
  GI50: 30 µM (inactive)
CAKI-1
  GI50: > 100 µM (inactive)
MDA-N
  GI50: 49.2 µM (inactive)
SNB-19
  GI50: 87.3 µM (inactive)
M14
  GI50: > 100 µM (inactive)
SW-620
  GI50: 50.9 µM (inactive)
HCT-15
  GI50: 99.3 µM
UACC-62
  GI50: 32.9 µM (inactive)
HT-29
  GI50: > 100 µM (inactive)
LOX IMVI
  GI50: 44.6 µM (inactive)
UACC-257
  GI50: 65.5 µM (inactive)
MDA-MB-231
  GI50: 64.6 µM (inactive)

## Oc1ccc2oc3c(O)c4ccccc4cc3c2c1
COLO 205
  GI50: 10.6 µM (inactive)
SN12C
  GI50: 2.36 µM (inactive)
U-251
  GI50: 4.86 µM (inactive)
A549
  GI50: 24.9 µM (inactive)
OVCAR-8
  GI50: 4.56 µM (inactive)
OVCAR-4
  GI50: 1.93 µM (inactive)
KM12
  GI50: 2.22 µM (inactive)
HCT-116
  GI50: 0.296 µM (active)
SR
  GI50: 1.72 µM (inactive)
CAKI-1
  GI50: 5.32 µM (inactive)
MDA-N
  GI50: 0.927 µM (active)
SNB-19
  GI50: 83.4 µM (inactive)
M14
  GI50: 3.49 µM (inactive)
SW-620
  GI50: 0.69 µM (active)
HCT-15
  GI50: 1.98 µM
UACC-62
  GI50: 0.121 µM (active)
HT-29
  GI50: 17.5 µM (inactive)
LOX IMVI
  GI50: 4.08 µM (inactive)
UACC-257
  GI50: 52 µM (inactive)
MDA-MB-231
  GI50: 12.8 µM (inactive)
